Results reported in patent publication US8246999B2, “Capped mesoporous silicates” (Iowa State University Research Foundation, Inc., priority 2003, dated 2012).
Entries after “also recorded” stand apart in the source; their conditions may differ. Structures can show the parent of a compound that is named as a salt.

Key:
[1] = Loading of vancomycin and ATP into linker-MSN and capping with CdS (HPLC of filtrate); type: physicochemical; details: for amount of mesopore-encapsulated molecule per 100.0 mg of linker-MSN material: CdS-capped MSN, calculated from concentration decrease in filtrate, HPLC; for loading efficiency: CdS-capped linker-MSN
Description: Purified linker-MSN material from sub-part (b) below (100.00 mg) was incubated in a PBS buffer solution (0.60 mL, pH 7.4) of ATP or vancomycin (3.00 μmol in both cases) for 24 hours. Mercaptoacetic acid-functionalized CdS nanoparticles from sub-part (c) below (0.15 mmol) were dissolved in 2.00 mL of PBS buffer with vancomycin or ATP (0.01 mmol in both cases); 1-[3-(dimethylamino)propyl]-3-ethylcarbodiimide hydrochloride (EDC) (57.50 mg, 0.30 mmol) was added to the CdS/drug solution. The reaction mixture was allowed to stir for 24 hours, followed by centrifuging the suspension at 12 000 rpm for 3 minutes. The resulting precipitates (ATP- or vancomycin-loaded, CdS-capped MSNs) were isolated and dried under vacuum.
The resulting reaction suspensions were centrifuged, and the CdS-capped MSN/drug composite materials along with the unreacted CdS nanoparticles were filtered. The concentrations of the free vancomycin and ATP molecules in the filtrate were then determined by HPLC. The calculated concentration decreases of solution vancomycin and ATP were attributed to the amounts of mesopore-encapsulated vancomycin (2.5 μmol) and ATP (4.7 μmol) per 100.0 mg of linker-MSN material. These numbers correspond to ca. 83.9 and 30.3 mol % loading efficiency, respectively.

[2] = DTT-induced drug/neurotransmitter release study from CdS-capped MSN (HPLC); type: physicochemical; details: for amount released / portion of encapsulated molecules released: after 3 days of DTT-induced uncapping; for release as share of the total release seen in 3 days: within 24 hours after introduction of 18.5 mM DTT
Description: CdS-capped MSN with vancomycin or ATP (10.00 mg) material was dispersed in 1.50 mL of PBS buffer (pH 7.4), followed by repeating wash/sonication/centrifugation cycles for five times to remove physisorbed, uncapped vancomycin or ATP molecules on the exterior surface of the material. The purified MSN/drug composite was redispersed in 3.50 mL of PBS buffer (pH 7.4). Aliquots were taken every 4 hours over a time period of 12 hours from the MSN/water suspension and injected to an analytical HPLC system (Hitachi LC/3DQMS with a reverse phase C18 column (Vydac), 0.4 cm×25 cm) to monitor the leaching of the mesoporous channel encapsulated vancomycin or ATP molecules. After 12 hours, dithiothreitol (DTT, 18.50 mM) was added to the suspension to cleave the disulfide linkage between the CdS nanoparticle and the MSN. The kinetic profiles of the DTT-induced release of vancomycin and ATP were monitored by following two literature-reported HPLC separation conditions. The peaks/areas at 280 and 258 nm were monitored/integrated for the quantitative analysis of amounts of released vancomycin and ATP, respectively. See Farin, D., et al., J. Pharm. Biomed. Anal. 1998, 18, 367-372; and Veciana-Nogues, M. T., et al., Food Chem. 1997, 59, 467-472.

astrocytes = type: cell-based, rat
Description: • (i) Wistar rats, raised at Iowa State University, were used for these experiments. Animal care and experimental protocols were in accordance with the guidelines and approval of the Iowa State University Committee on Animal Care. • (ii) Cell Cultures. Enriched primary astrocyte cultures from neonatal (P0 to P3) rat cerebral cortex were prepared as previously described by Jeremic, A., et al., J. Neurochem. 2001, 77, 664-675. Briefly, freshly dissected cortical tissues from three animals were incubated 50 minutes at 37° C. in 2.00 mL of Earle's balanced salt solution (EBSS; Gibco-Invitrogen Co.) containing papain (1.54 mg/mL; Sigma-Aldrich Co.). After incubation, tissue was rinsed with EBSS solution and incubated for 5 minutes in trypsin-inhibitor solution (1 mg/mL; Gibco-Invitrogen Co.). After being rinsed, once with EBSS solution and once with culture medium (consisting of α-minimum essential medium (α-MEM; Gibco-Invitrogen Co.) supplemented with 10% heat-inactivated fetal bovine serum (FBS; Gibco-Invitrogen Co.) and 1.00 mL of penicillin-streptomycin solution (Sigma-Aldrich Co.) per 100 mL), the tissue was mechanically dispersed in culture medium by triturating through a fire-polished glass pipet. The cell suspension was transferred to sterile 15-mL centrifuge tubes and spun at 1000 g for 10 minutes. Cell pellets were resuspended in culture medium (α-MEM supplemented with 10% heat-inactivated FBS and 1.00 mL of penicillin-streptomycin solution per 100.00 mL) and plated in culture flasks. Cells were maintained at 37° C. in a humidified 5% CO2/95% air atmosphere. Culture medium was changed every 2 to 3 days. When mixed cultures reached confluence (9-12 days), the flasks were shaken (260 rpm) for 90 minutes to remove microglia and dividing type I astroglia. After shaking the cells, medium was replaced, and the flasks were incubated for 1 hour to equilibrate with CO2 in the fresh medium. Cultures were then shaken overnight (12-18 hours) at 260 rpm at 37° C. Cultures enriched in type I astroglia were obtained by trypsinizing (0.25%; Sigma-Aldrich Co.) attached cells for 5 minutes. […]

[3] = literature reports; cited from earlier work

For `Nc1ncnc2c1ncn2[C@@H]1O[C@H](COP(=O)([O-])OP(=O)([O-])OP(=O)(O)O)[C@@H](O)[C@H]1O.[Na+].[Na+]` [ATP, adenosine triphosphate disodium salt], the “amount of mesopore-encapsulated molecule per 100.0 mg of linker-MSN material” value [1] was 4.7 µmol, the loading efficiency [1] was roughly 30.3 mol % and the amount released [2] was 1.3 µmol. For the same compound, the “portion of encapsulated molecules released” value [2] was 28.2%, the “release as share of the total release seen in 3 days” value [2] was 85% and the “[Ca^2+]i response of astrocytes to ATP” value (astrocytes; 100.0 μM ATP perfusion, no MSNs, ME-treated astrocytes, triphosphate disodium salt) was “obvious increases in [Ca^2+]i”. For the same compound, the “[Ca^2+]i response of astrocytes to ATP in presence of empty capped MSNs” value (astrocytes; 100.0 μM ATP perfusion, CdS-capped MSNs without ATP encapsulation present, triphosphate disodium salt) was “[Ca^2+]i increased; also recorded: An increase in [Ca^2+]i”.
For `OCCS` [ME], the “[Ca^2+]i response of astrocytes to ME” value (astrocytes; ME 1.0 mM for 5 minutes, without MSNs) was “no increase in [Ca^2+]; also recorded: failed to produce any [Ca^2+]i response”.
With `CN[C@H](CC(C)C)C(=O)N[C@H]1C(=O)N[C@@H](CC(N)=O)C(=O)N[C@H]2C(=O)N[C@H]3C(=O)N[C@H](C(=O)N[C@H](C(=O)O)c4cc(O)cc(O)c4-c4cc3ccc4O)[C@H](O)c3ccc(c(Cl)c3)Oc3cc2cc(c3O[C@@H]2O[C@H](CO)[C@@H](O)[C@H](O)[C@H]2O[C@H]2C[C@](C)(N)[C@H](O)[C@H](C)O2)Oc2ccc(cc2Cl)[C@H]1O` [vancomycin, Vancomycin hydrochloride] the “amount of mesopore-encapsulated molecule per 100.0 mg of linker-MSN material” value [1] was 2.5 µmol, the loading efficiency [1] was “ca. 83.9 mol %” and the amount released [2] was 1.6 µmol. For the same compound, the “portion of encapsulated molecules released” value [2] was 53.8%, the “release as share of the total release seen in 3 days” value [2] was 85% and the “isoelectric point (pI)” value [3] was 8.3.
